{"source": "patent US12042492B2", "about": "(priority 2020, dated 2024)", "assay_type_in_all_cases": "cell-based, mouse", "key": {"[1]": {"tested_on": "Aβ40 and Aβ42 levels in mAPP N2a cells", "assay": "Sandwich ELISA of soluble Aβ40 and Aβ42 levels in mAPP N2a cells", "details": "ligand 1-treated mAPP N2a cells vs untreated mAPP cells", "text": "ELISA Ligand based inhibition of BACE1 activity, Aβ 40 and 42. BACE1 activity, Levels of Aβ40 and 42. To determine whether ligand 1 lowers BACE1 activity and reducing the Aβ40 and Aβ42 levels, the inventors measured BACE1 activity, Aβ40 and Aβ42 levels in mutant APP cells (N2a+mutant cDNA transfected) treated with ligand 1 using Sandwich ELISA.\nThe N2a cells grown for 6 days in a serum-free medium (1:1 mixture of DMEM and OptiMEM, plus penicillin and streptomycin (Invitrogen, Carlsbad, CA, USA) until the cells developed neuronal processes. As shown in (FIG. 10), these cells were used for 4 groups—one control group and 3 treatment groups. 1) untreated N2a cells (the control group), 2) N2a cells treated with ligand 1 (N2a+ligand 1), 3) N2a cells transfected mAPP with the (lipofectamine) (20 μM final concentration for 6 hrs (mAPP), 4) N2a cells transfected with mAPP cDNA for 6 hrs, treated with ligand 1 (mAPP+ligand 1 treatment group), N2a cells treated with ligand 1 for 24 hrs and then treated with the mAPP cDNA for 6 hrs (ligand 1+mAPP treatment group). […]\nELISA Ligand based BACE1 inhibition of Aβ 40 and 42. […] For each sample, Aβ1-40 and Aβ1-42 were measured with commercial colorimetric ELISA kits (Biosource International, Camarillo, CA, USA) specific for human. […] Protein concentrations of the homogenates were determined following the […], and Aβ was expressed as pg Aβ/mg protein."}, "N2a cells": {"tested_on": "N2a cells", "assay": "Cell viability (MTT assay) in N2a cells", "details": "ligand treated N2a cells relative to untreated cells; P=0.038", "protocol": "The N2a cells grown for 6 days in a serum-free medium (1:1 mixture of DMEM and OptiMEM, plus penicillin and streptomycin (Invitrogen, Carlsbad, CA, USA) until the cells developed neuronal processes. As shown in (FIG. 10), these cells were used for 4 groups—one control group and 3 treatment groups. 1) untreated N2a cells (the control group), 2) N2a cells treated with ligand 1 (N2a+ligand 1), 3) N2a cells transfected mAPP with the (lipofectamine) (20 μM final concentration for 6 hrs (mAPP), 4) N2a cells transfected with mAPP cDNA for 6 hrs, treated with ligand 1 (mAPP+ligand 1 treatment group), N2a cells treated with ligand 1 for 24 hrs and then treated with the mAPP cDNA for 6 hrs (ligand 1+mAPP treatment group). As shown in (FIG. 10), the inventors performed 4 independent cell cultures and treatments for all experiments (n=4).\nCell viability and apoptotic cell death MTT assay. Ligand 1 treated N2a cells, cell based apoptosis assay was performed using Cellometer Vision CBA Image Cytometry System (Nexcelom Bioscience LLC, Lawrence, MA) with two fluorophore Annexin V-FITC and Propidium Iodide (PI) staining solution, according to manufacturer's instructions. Briefly, cells were harvested using trypsin, then spin down at 300 g for three minutes and pellets were washed with 1×PBS, cells were counted using hematocytometer. […]"}, "mAPP N2a cells [2]": {"tested_on": "mAPP N2a cells", "assay": "Immunoblotting analysis of protein levels in mAPP N2a cells", "details": "immunoblot; for Nrf1 protein level / Nrf2 protein level: P=0.004"}, "mAPP N2a cells [3]": {"tested_on": "mAPP N2a cells", "assay": "Immunofluorescence analysis of BACE1, 6E10 and CTF", "details": "ligand 1-treated mAPP N2a cells relative to untreated mAPP N2a cells, P=0.01", "protocol": "Immunofluorescence analysis of BACE1, 6E10 and CTF. To determine the effect of ligand 1 on BACE1, 6E10 and C-terminal fragments, immunofluorescence analysis was performed on four different groups of cells: 1) untreated N2a cells versus; 2) N2a+ligand 1; 3); cells transfected with mAPP and 4) mAPP+ligand 1.\nImmunofluorescence analysis of BACE1, 6E10 and CTF. To determine BACE1, 6E10, CTF inhibition, mitochondrial network, immunofluorescence analysis was performed using mutant AβPP cells and untransfected N2a and TOM20 antibody as described in (35). The fixed cells were washed with warm PBS, fixed in freshly prepared 4% paraformaldehyde in PBS for 10 minutes, then washed with PBS and permeabilized with 0.1% Triton-X100 in PBS. They were blocked with a 1% blocking solution (Invitrogen) for 1 hour at room temperature. All sections were incubated overnight with TOM20 antibody (1:250 dilution). After incubation, the cells were washed 3 times with PBS, for 10 minutes each. The cells were incubated with a secondary antibody conjugated with Fluor 488 (Invitrogen) for 1 hour at room temperature. The cells were washed 3 times with PBS and mounted on slides. Photographs were taken with a multiphoton laser scanning microscope system (ZeissMeta LSM510). To quantify the immunoreactivity of TOM20 antibody for each treatment, 10-15 photographs were taken at ×40 magnifications, and statistical significance was assessed, using one-way ANOVA for TOM20 protein."}, "[4]": {"details": "mAPP+ligand 1 relative to mAPP cells, P=0.001"}, "[5]": {"details": "mAPP+ligand 1 relative to mAPP cells, P=0.002, listed as ligand 1"}, "[6]": {"details": "mAPP+ligand 1 relative to mAPP cells, listed as ligand 1"}, "[7]": {"details": "mAPP+ligand 1 relative to mAPP cells, listed as ligand1"}, "[8]": {"details": "mAPP+ligand 1 relative to mAPP cells, P=0.01, listed as ligand 1"}, "[9]": {"details": "mAPP+ligand 1 relative to mAPP cells, P=0.01, listed as ligand1"}, "[10]": {"details": "mAPP+ligand 1 relative to mAPP cells, P=0.02"}}, "note": "Entries after “also recorded” stand apart in the source; their conditions may differ."}
{"substance": "[(6As,8S,10aS,12aS)-10a, 12a-dimethyl-2-oxo-3,4,4a,4b,5,6,6a,7,8,9,10,10b,11,12-tetradecahydro-1H-naphtho[2,1-f]quinolin-8-yl] 4-[4-[bis(2-chloroethyl)amino]phenyl]butanoate [Ligand 1]", "values": [{"measurement": "Aβ42 level", "setting": "[1]; P=0.005", "value": "significantly lower; also recorded: reduced"}, {"measurement": "Aβ40 level", "setting": "[1]; soluble, P=0.01", "value": "decreased; also recorded: reduced"}, {"measurement": "Cell viability", "setting": "N2a cells", "value": "significantly increased"}, {"measurement": "BACE1 protein level", "setting": "mAPP N2a cells [2]; ligand 1 treated cells relative to mAPP cells", "value": "significantly reduced"}, {"measurement": "C-terminal fragment C99 protein level", "setting": "mAPP N2a cells [2]; [4]", "value": "significantly decreased; also recorded: significantly reduced"}, {"measurement": "Fis1 protein level", "setting": "mAPP N2a cells [2]; [4]", "value": "significantly decreased"}, {"measurement": "C-terminal fragment C83 protein level", "setting": "mAPP N2a cells [2]; [5]", "value": "significantly decreased; also recorded: significantly reduced"}, {"measurement": "Mfn1 protein level", "setting": "mAPP N2a cells [2]; [5]", "value": "increased"}, {"measurement": "Mfn1 protein level", "setting": "mAPP N2a cells [2]; mAPP+ligand 1 relative to mAPP cells, P=0.002, listed as ligand1", "value": "significantly increased"}, {"measurement": "Nrf1 protein level", "setting": "mAPP N2a cells [2]; [6]", "value": "increased"}, {"measurement": "Nrf2 protein level", "setting": "mAPP N2a cells [2]; [6]", "value": "increased"}, {"measurement": "Nrf1 protein level", "setting": "mAPP N2a cells [2]; [7]", "value": "significantly increased"}, {"measurement": "Nrf2 protein level", "setting": "mAPP N2a cells [2]; [7]", "value": "significantly increased"}, {"measurement": "Drp1 protein level", "setting": "mAPP N2a cells [2]; mAPP+ligand 1 relative to mAPP cells, P=0.01", "value": "significantly decreased"}, {"measurement": "Opa1 protein level", "setting": "mAPP N2a cells [2]; [8]", "value": "increased"}, {"measurement": "PGC1α protein level", "setting": "mAPP N2a cells [2]; [8]", "value": "increased"}, {"measurement": "Opa1 protein level", "setting": "mAPP N2a cells [2]; [9]", "value": "significantly increased"}, {"measurement": "PGC1α protein level", "setting": "mAPP N2a cells [2]; [9]", "value": "significantly increased"}, {"measurement": "PSD95 protein level", "setting": "mAPP N2a cells [2]; [10]", "value": "significantly increased"}, {"measurement": "Synaptophysin protein level", "setting": "mAPP N2a cells [2]; [10]", "value": "significantly increased"}, {"measurement": "Full-length mutant APP protein level", "setting": "mAPP N2a cells [2]; mAPP+ligand 1 relative to mAPP cells, P=0.03", "value": "significantly decreased; also recorded: significantly reduced"}, {"measurement": "MAP2 protein level", "setting": "mAPP N2a cells [2]; mAPP+ligand 1 relative to mAPP cells, P=0.04", "value": "significantly increased"}, {"measurement": "Mfn2 protein level", "setting": "mAPP N2a cells [2]; [6]", "value": "increased"}, {"measurement": "TFAM protein level", "setting": "mAPP N2a cells [2]; [6]", "value": "increased"}, {"measurement": "Mfn2 protein level", "setting": "mAPP N2a cells [2]; [7]", "value": "significantly increased"}, {"measurement": "TFAM protein level", "setting": "mAPP N2a cells [2]; [7]", "value": "significantly increased"}, {"measurement": "6E10 immunoreactivity (mutant APP and Aβ)", "setting": "mAPP N2a cells [3]", "value": "significantly lower; also recorded: significantly reduced"}, {"measurement": "BACE1 immunoreactivity", "setting": "mAPP N2a cells [3]", "value": "significantly lower; also recorded: significantly reduced"}, {"measurement": "C-terminal fragment (CTF) immunoreactivity", "setting": "mAPP N2a cells [3]", "value": "significantly lower; also recorded: significantly reduced"}]}
